In ChEMBL document CHEMBL6153137, “Design, Synthesis, and Biological Evaluation of Novel Orally Available Covalent CDK12/13 Dual Inhibitors for the Treatment of Tumors” (J Med Chem, 2025):
pIC50: −log10 of the molar value. The source made the active and inactive calls. No cut-off for these calls is given here.

What was measured:
[1] = AUC in Balb/c mouse xenografted with human MV4-11 cells at 15 mg/kg, po administered once daily via gavage; format: ADME, organism-based; conditions: in vivo
[2] = AUC(0 to t) in male Sprague-Dawley rat at 10 mg/kg, po administered via gavage and measured on day 1; format: ADME, organism-based; conditions: in vivo, 24 h, time 1 day
[3] = AUC(0 to t) in female Sprague-Dawley rat at 15 mg/kg, po administered once daily via gavage for 28 days; format: ADME, organism-based; conditions: in vivo, 672 h, time 28 day
[4] = Cmax in male Sprague-Dawley rat at 10 mg/kg, po administered via gavage and measured on day 1; format: ADME, organism-based; conditions: in vivo, time 1 day
[5] = Cmax in female Sprague-Dawley rat at 15 mg/kg, po administered via gavage and measured on day 1; format: ADME, organism-based; conditions: in vivo, time 1 day
[6] = Toxicity against female Sprague-Dawley rat assessed as effect on phosphorus level in blood at 7.5 to 30 mg/kg, po administered once daily via gavage for 28 days and measured on day 29; format: organism-based; conditions: in vivo, 696 h, dose 7.5-30 mg/kg, time 29 day
[7] = AUC (0 to infinity) in Sprague-Dawley rat at 15 mg/kg, po by LC-MS/MS analysis; format: ADME, organism-based; conditions: in vivo
[8] = Half life in male Sprague-Dawley rat at 10 mg/kg, po administered via gavage and measured on day 1; format: ADME, organism-based; conditions: in vivo, time 1 day
[9] = biological target: Cyclin-dependent kinase 5/CDK5 activator 1 (Homo sapiens) (UniProt Q00535+Q15078); experiment: Inhibition of human recombinant N-terminal GST-tagged CDK5/N-terminal GST-tagged p35NCK expressed in HEP Sf9 cells using ATP as substrate at 2 uM measured after 60 mins by ADP-Glo reagent based luminescence analysis
Sequence of Cyclin-dependent kinase 5/CDK5 activator 1 (Homo sapiens) (Q00535 whole entry): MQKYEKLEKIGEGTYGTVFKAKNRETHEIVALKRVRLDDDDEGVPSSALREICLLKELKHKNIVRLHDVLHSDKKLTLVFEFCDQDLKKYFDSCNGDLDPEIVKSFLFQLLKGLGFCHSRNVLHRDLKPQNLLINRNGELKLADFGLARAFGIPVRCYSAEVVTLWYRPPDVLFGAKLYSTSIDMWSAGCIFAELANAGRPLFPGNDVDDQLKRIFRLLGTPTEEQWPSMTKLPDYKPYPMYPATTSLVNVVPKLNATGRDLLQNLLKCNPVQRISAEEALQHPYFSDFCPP
Sequence of Cyclin-dependent kinase 5/CDK5 activator 1 (Homo sapiens) (Q15078 99-307 partner limits assumed): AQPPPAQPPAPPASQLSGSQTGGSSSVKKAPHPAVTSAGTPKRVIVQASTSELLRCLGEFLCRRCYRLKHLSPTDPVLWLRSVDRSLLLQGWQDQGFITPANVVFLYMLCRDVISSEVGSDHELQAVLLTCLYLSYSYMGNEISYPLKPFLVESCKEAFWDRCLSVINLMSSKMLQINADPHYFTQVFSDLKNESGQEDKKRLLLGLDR

[10] = AUC (0 to infinity) in Sprague-Dawley rat at 1 mg/kg, iv by LC-MS/MS analysis; format: ADME, organism-based; conditions: in vivo
[11] = biological target: CDK1/Cyclin A (Homo sapiens) (UniProt P06493+P20248); experiment: Inhibition of human recombinant N-terminal GST-tagged CDK1/N-terminal GST-tagged and C-terminal 8X His-tagged Cyclin A2 expressed in HEP Sf9 cells using ATP as substrate at 2 uM measured after 60 mins by ADP-Glo reagent based luminescence analysis
Sequence of CDK1/Cyclin A (Homo sapiens) (P06493 whole entry, looked up): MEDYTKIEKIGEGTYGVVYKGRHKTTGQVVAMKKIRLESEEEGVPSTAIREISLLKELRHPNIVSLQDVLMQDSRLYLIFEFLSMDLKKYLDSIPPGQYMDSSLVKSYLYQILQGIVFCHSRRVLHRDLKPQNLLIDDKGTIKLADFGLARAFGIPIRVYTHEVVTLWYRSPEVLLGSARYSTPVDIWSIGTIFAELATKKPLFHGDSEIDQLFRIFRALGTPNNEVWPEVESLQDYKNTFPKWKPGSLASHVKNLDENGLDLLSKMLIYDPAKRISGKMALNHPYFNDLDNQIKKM
Sequence of CDK1/Cyclin A (Homo sapiens) (P20248 whole entry, looked up): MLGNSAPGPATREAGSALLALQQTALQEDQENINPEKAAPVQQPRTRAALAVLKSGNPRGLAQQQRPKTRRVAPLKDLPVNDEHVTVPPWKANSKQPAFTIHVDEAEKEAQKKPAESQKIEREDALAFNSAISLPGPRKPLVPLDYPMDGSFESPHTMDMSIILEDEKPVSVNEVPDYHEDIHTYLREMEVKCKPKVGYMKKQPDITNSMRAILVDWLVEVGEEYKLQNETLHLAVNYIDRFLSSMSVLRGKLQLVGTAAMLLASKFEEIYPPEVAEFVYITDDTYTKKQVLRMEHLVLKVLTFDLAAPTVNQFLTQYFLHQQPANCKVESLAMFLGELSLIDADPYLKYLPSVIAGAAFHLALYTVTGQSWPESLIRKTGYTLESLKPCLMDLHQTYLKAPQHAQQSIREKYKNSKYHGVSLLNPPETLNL

[12] = Cmax in female Sprague-Dawley rat at 7.5 mg/kg, po administered via gavage and measured on day 1; format: ADME, organism-based; conditions: in vivo, time 1 day
[13] = biological target: Cyclin-dependent kinase 12/13 (Homo sapiens) (UniProt Q14004+Q9NYV4); experiment: Inhibition of CDK12/13 in human SUM149PT cells assessed as reduction in ATM gene expression at 500 nM incubated for 8 to 24 hrs by qPCR analysis; format: cell-based; conditions: time lower 8.0 hrs, time upper […]
SW-403 = experiment: Antiproliferative activity against human SW403 cells assessed as reduction in cell viability incubated for 7 days by CellTiter-Glo reagent based luminescence analysis; format: functional; conditions: SW-403, 168 h
[14] = Ratio of drug level in tumor to plasma in Balb/c mouse xenografted with human MV4-11 cells at 30 mg/kg, po administered via gavage and measured after 2 hrs; format: ADME, organism-based
[15] = Half life in female Sprague-Dawley rat at 15 mg/kg, po administered once daily via gavage for 28 days; format: ADME, organism-based; conditions: in vivo, time 28 day
SUM149PT = experiment: Antitumor activity against human SUM149PT cells xenografted in Balb/c mouse assessed as inhibition of tumor growth at 60 mg/kg, po administered once daily via gavage and measured on day 20; format: functional; conditions: 480 h, time 20 day, read-out: TGI
[16] = Half life in female Sprague-Dawley rat at 30 mg/kg, po administered via gavage and measured on day 1; format: ADME, organism-based; conditions: in vivo, time 1 day
[17] = AUC(0 to t) in male Sprague-Dawley rat at 20 mg/kg, po administered via gavage and measured on day 1; format: ADME, organism-based; conditions: in vivo, 24 h, time 1 day
[18] = Half life in Sprague-Dawley rat at 1 mg/kg, iv measured for 24 hrs by LC-MS/MS analysis; format: ADME, organism-based; conditions: in vivo
[19] = biological target: Mitogen-activated protein kinase 10 (Homo sapiens) (UniProt P53779); experiment: Inhibition of JNK3 (unknown origin) at 5 uM by DiscoverX KinomeScan ScanMAX analysis
Sequence of Mitogen-activated protein kinase 10 (Homo sapiens) (P53779 whole entry): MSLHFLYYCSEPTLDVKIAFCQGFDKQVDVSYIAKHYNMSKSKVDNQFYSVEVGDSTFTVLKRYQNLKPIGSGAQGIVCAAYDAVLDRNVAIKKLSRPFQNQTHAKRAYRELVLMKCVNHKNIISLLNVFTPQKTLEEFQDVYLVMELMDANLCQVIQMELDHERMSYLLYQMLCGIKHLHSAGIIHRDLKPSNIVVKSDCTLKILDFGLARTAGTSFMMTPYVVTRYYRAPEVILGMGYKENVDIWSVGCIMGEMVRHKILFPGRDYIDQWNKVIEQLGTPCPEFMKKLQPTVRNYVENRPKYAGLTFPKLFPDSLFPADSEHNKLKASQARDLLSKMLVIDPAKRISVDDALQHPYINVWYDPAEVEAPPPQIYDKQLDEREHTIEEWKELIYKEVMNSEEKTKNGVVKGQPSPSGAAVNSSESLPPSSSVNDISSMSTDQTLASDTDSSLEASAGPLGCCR

[20] = Toxicity against male Sprague-Dawley rat assessed as effect on mean corpuscular hemoglobin at 10 to 40 mg/kg, po administered once daily via gavage for 28 days and measured on day 29; format: organism-based; conditions: in vivo, 696 h, dose 10-40 mg/kg, time 29 day
[21] = Protein binding in mouse plasma assessed as free fraction at 400 uM incubated for 4 hrs by equilibrium dialysis method based LC-MS/MS analysis; format: ADME, cell-free
NCI-H508 = experiment: Antiproliferative activity against human NCI-H508 cells assessed as reduction in cell viability incubated for 7 days by CellTiter-Glo reagent based luminescence analysis; format: functional; conditions: NCI-H508, 168 h
[22] = Half life in Sprague-Dawley rat at 50 mg/kg, po measured for 24 hrs by LC-MS/MS analysis; format: ADME, organism-based; conditions: in vivo
[23] = Clearance in Sprague-Dawley rat at 1 mg/kg, iv measured for 24 hrs by LC-MS/MS analysis; format: ADME, organism-based; conditions: in vivo
[24] = Cmax in male Sprague-Dawley rat at 40 mg/kg, po administered once daily via gavage for 28 days; format: ADME, organism-based; conditions: in vivo, time 28 day
HEP Sf9 = experiment: Inhibition of human recombinant N-terminal GST-tagged CDK6/C-terminal 6X His-tagged Cyclin D3 S259A mutant expressed in HEP Sf9 cells using ATP as substrate at 2 uM measured after 60 mins by ADP-Glo reagent based luminescence analysis
[25] = AUC (0 to infinity) in Sprague-Dawley rat at 150 mg/kg, po by LC-MS/MS analysis; format: ADME, organism-based; conditions: in vivo
[26] = Toxicity against male Sprague-Dawley rat assessed as hypersalivation at 40 mg/kg, po administered once daily via gavage for 28 days; format: organism-based; conditions: in vivo, 672 h, time 28 day
[27] = biological target: Cyclin-dependent kinase 13/Cyclin-K (Homo sapiens) (UniProt Q14004+O75909); experiment: Inhibition of human recombinant N-terminal GST-tagged CDK13/N-terminal FLAG and C-terminal His-tagged Cyclin K expressed in HEP Sf9 cells using ATP as substrate at 2 uM measured after 60 mins by ADP-Glo reagent based luminescence assay
Sequence of Cyclin-dependent kinase 13/Cyclin-K (Homo sapiens) (O75909 whole entry, looked up): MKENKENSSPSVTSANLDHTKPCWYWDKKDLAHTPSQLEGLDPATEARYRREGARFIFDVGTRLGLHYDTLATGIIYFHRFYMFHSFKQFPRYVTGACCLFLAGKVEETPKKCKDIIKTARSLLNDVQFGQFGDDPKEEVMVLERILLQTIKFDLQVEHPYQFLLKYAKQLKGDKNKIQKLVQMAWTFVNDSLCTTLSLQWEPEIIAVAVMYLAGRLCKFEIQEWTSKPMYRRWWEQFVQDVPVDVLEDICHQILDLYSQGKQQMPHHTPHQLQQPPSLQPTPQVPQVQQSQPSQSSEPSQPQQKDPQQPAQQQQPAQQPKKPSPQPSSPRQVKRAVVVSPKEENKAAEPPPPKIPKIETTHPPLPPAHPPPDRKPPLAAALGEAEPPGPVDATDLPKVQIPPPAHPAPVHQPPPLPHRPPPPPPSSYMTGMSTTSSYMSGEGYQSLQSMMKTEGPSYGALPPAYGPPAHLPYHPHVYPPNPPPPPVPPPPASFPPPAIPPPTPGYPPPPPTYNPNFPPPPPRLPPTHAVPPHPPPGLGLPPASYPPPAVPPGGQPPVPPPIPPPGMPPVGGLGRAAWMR
Sequence of Cyclin-dependent kinase 13/Cyclin-K (Homo sapiens) (Q14004 whole entry, looked up): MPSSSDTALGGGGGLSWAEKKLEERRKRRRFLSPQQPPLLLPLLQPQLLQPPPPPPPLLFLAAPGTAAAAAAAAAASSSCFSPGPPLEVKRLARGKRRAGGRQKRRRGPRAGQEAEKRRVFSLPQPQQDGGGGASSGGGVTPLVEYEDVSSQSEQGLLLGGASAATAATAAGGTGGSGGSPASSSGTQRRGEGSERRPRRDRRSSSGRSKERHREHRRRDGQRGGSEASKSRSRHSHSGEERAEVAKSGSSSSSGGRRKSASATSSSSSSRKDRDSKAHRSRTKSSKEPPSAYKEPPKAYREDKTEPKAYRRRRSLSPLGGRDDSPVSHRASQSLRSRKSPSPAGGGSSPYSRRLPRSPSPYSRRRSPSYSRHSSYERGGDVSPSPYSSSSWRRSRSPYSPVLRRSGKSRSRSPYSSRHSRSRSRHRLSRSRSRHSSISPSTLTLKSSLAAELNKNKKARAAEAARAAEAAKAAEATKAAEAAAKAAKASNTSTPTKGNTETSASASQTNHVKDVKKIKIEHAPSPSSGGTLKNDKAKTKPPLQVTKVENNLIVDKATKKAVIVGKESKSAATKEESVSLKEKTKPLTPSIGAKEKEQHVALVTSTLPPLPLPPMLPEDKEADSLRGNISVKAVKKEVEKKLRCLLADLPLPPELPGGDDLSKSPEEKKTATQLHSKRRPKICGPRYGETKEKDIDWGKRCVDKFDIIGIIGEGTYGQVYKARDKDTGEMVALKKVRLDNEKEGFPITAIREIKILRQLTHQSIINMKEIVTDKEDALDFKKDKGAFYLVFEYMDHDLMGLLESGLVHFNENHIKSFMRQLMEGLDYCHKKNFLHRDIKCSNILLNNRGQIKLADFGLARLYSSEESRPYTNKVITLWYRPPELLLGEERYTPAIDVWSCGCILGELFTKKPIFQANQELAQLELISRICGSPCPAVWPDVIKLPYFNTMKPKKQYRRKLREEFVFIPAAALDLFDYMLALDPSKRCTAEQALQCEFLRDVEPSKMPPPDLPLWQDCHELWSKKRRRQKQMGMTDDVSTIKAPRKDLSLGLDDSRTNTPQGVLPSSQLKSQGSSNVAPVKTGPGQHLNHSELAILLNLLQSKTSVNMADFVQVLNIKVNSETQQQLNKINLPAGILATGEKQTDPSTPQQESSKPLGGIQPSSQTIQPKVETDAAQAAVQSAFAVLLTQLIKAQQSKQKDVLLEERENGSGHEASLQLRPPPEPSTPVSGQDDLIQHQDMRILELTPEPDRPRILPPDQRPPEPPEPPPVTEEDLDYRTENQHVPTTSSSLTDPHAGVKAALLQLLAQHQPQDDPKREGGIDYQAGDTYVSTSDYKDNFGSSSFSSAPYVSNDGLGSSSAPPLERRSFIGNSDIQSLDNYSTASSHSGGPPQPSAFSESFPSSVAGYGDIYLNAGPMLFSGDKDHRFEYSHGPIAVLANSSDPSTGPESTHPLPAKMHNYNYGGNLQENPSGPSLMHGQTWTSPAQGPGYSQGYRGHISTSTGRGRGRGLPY

[28] = Toxicity against male Sprague-Dawley rat assessed as effect on phosphorus level in blood at 10 to 40 mg/kg, po administered once daily via gavage for 28 days and measured on day 29; format: organism-based; conditions: in vivo, 696 h, dose 10-40 mg/kg, time 29 day
DLD-1 = experiment: Antiproliferative activity against human DLD-1 cells assessed as reduction in cell viability incubated for 7 days by CellTiter-Glo reagent based luminescence analysis; format: functional; conditions: DLD-1, 168 h
Ramos = experiment: Antiproliferative activity against human Ramos cells assessed as reduction in cell viability incubated for 7 days by CellTiter-Glo reagent based luminescence analysis; format: functional; conditions: 168 h
[29] = Toxicity against male Sprague-Dawley rat assessed as effect on red blood cells level at 10 to 40 mg/kg, po administered once daily via gavage for 28 days and measured on day 29; format: organism-based; conditions: in vivo, 696 h, dose 10-40 mg/kg, time 29 day
[30] = biological target: Cyclin-dependent kinase 7 (Homo sapiens) (UniProt P50613); experiment: Inhibition of CDK7 (unknown origin) at 5 uM by DiscoverX KinomeScan ScanMAX analysis
Sequence of Cyclin-dependent kinase 7 (Homo sapiens) (P50613 whole entry): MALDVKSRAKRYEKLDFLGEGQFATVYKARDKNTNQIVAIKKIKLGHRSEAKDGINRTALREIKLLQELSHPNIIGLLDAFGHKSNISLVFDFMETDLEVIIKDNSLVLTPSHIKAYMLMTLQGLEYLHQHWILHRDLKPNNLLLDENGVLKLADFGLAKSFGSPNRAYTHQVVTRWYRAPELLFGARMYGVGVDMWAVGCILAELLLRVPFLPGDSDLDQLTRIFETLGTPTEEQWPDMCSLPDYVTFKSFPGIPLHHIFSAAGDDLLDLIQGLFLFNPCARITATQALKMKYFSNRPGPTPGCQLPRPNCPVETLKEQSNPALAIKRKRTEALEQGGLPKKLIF

AUC [1]: 2140 ng·h/mL
AUCt [2]: 978 ng·h/mL
AUCt [3]: 3220 ng·h/mL
Cmax [4]: 460 ng/mL
Cmax [5]: 1280 ng/mL
AUC(0-inf) [7]: 2280 ng·h/mL
half-life [8]: 3.2 h
inhibition [9]: 62%
AUC(0-inf) [10]: 270 ng·h/mL
inhibition [11]: 10%
Cmax [12]: 870 ng/mL
inhibition [13]: Active
pIC50 (SW-403): 6.87
Kp at 2 h [14]: 0.46
half-life [15]: 2.3 h
half-life [16]: 4 h
AUCt [17]: 2550 ng·h/mL
half-life [18]: 0.23 h
inhibition [19]: Active
fraction unbound at 4 h, 400 µM [21]: 0.075
pIC50 (NCI-H508): 7.06
half-life [22]: 6.79 h
clearance [23]: 62.4 mL/min/kg
Cmax [24]: 2410 ng/mL
AUC(0-inf) [25]: 31200 ng·h/mL
inhibition [27]: 83%
pIC50 (DLD-1): 6.87
pIC50 (Ramos): 7.00
inhibition [30]: Active
Structure (SMILES): C=CC(=O)N1CCc2c(ncnc2N2CC[C@@H](Nc3ncc(Cl)c(OC)n3)C2)C1
Activity [6]: Non-toxic
inhibition in vivo at 60 mg/kg (SUM149PT): 114%
Activity [20]: Non-toxic
inhibition (HEP Sf9): 23%
Activity [26]: Toxic
Activity [28]: Non-toxic
Activity [29]: Non-toxic
